Experimental findings from the CATMoS acute toxicity set (Mansouri et al. 2021) are described below.

Data set [1] in a line: rat acute oral toxicity. Particulars: in vivo.
A short description of data set [2]: Nontoxic (NT; LD50>2,000mg/kg vs. all others). The note with it: rat; in vivo; po. An excerpt:
[…]The data set underlying the modeling effort for this project was initially compiled by NICEATM and U.S. EPA’s CCTE. Briefly, LD50 data were collected from rat acute oral systemic toxicity tests, including limit tests, ranges/confidence intervals, and discrete LD50 values. The full data set included 21,200 LD50 entries for 15,688 substances. […] Data were reviewed to ensure that LD50 values with obvious errors in the extracted data such as unit conversion errors (e.g., comma and decimal separator misplacements) were either fixed or removed. After this review, 16,209 LD50 values remained. Many of the chemicals represented had multiple LD50 entries, requiring that a single representative value per Chemical Abstracts Service Registry Number (CASRN) identifier be defined to facilitate modeling efforts. Based on ATWG feedback and to define the representative LD50 as a protective value while accounting for the distribution across multiple LD50s, the median of the lowest quartile was computed using only discrete LD50 values (omitting limit test data and range and confidence interval data). A detailed summary of the data compilation is available online on the NICEATM webpage dedicated to the collaborative modeling project (NTP 2020).
[…][…] For categorical designations, limit test and range/confidence interval LD50 data were integrated wherever possible. As such, the number of chemicals with end point values/calls varies across the modeling end points (Table 3) based on whether chemicals had representative LD50 values and/or other data. If a chemical had both, the representative value was used to determine categorical calls rather than limit test data. Some data were useable only for certain end points and categories depending on the thresholds. For example, ranges that spanned multiple hazard categories were considered only for the binary (very toxic/nontoxic) end points and omitted from rendering a determination for hazard category assignment.
[…]The final data set comprising 11,992 chemicals was split into training and evaluation sets […], respectively. This process was performed semirandomly by ordering chemicals based on the five end points (categorical and continuous LD50 values) and partitioning every fourth record into the evaluation set accordingly. This approach was taken to ensure an equivalent distribution of the LD50 values and the different hazard categories between the training and the evaluation sets without supervised sampling of the chemicals based on structures (Figure 1A). The sources of the chemical structures were also kept equivalent between the two sets, with chemical structures obtained from DSSTox, being the highest quality, representing over 75% of each set (Figure 1B).

Data set [3] is described as follows: GHS categories as the set defines them, by LD50: 1 up to 5, 2 up to 50, 3 up to 300, 4 up to 2000, 5 above 2000 mg/kg. The note with it: rat; in vivo; po.

`O=P(O)(O)CCCl`: in data set [1], the LD50 was found to be 3400 mg/kg. The same measure, in the same setting: the value for `Nc1ccccc1[N+](=O)[O-]` was 1600 mg/kg; that for `CCOCCO` was 1520 mg/kg; that for `O=[N+]([O-])c1ccc(O)cc1` was 170 mg/kg. Same read-out and setting: the value for `COc1ccc(C(CN)C2(O)CCCCC2)cc1` (centres undefined) was 200 mg/kg. Still for that read-out and setting: the value for `CC1(C)[C@H]2[C@H](O)OC(=O)[C@H]21` was 200 mg/kg. Turning to `CN(C(=O)CCl)c1ccc([N+](=O)[O-])cc1`, the nontoxic result in data set [2] is “FALSE (not_nontoxic)”.

Regarding `CCCCOCCOCCOC(C)=O`, the LD50 in data set [1] was 6500 mg/kg. Same read-out and setting: the value for `COc1nc(C)nc(NC(=O)NS(=O)(=O)c2ccccc2Cl)n1` was 5540 mg/kg. In turn, `CCCCOC(=O)C(C)Oc1ccc(Oc2ccc(C(F)(F)F)cn2)cc1` (centres undefined) registered an LD50 in data set [1] of 2910 mg/kg. In data set [1], `CCCCC(CC)(CO)CO` came in with an LD50 of 2800 mg/kg. This LD50 and that of the compound before are within 1.5-fold of each other. Take `NNc1nncc2ccccc12`: the LD50 in data set [1] is 173 mg/kg.

In data set [1], `CC1(C)[C@H](/C=C2\CCSC2=O)[C@@H]1C(=O)OCc1coc(Cc2ccccc2)c1` registered an LD50 of 650 mg/kg. Against the preceding compound, the LD50 is about 3.8-fold higher. With `CN(C)C=CC(=O)c1cccnc1`, in data set [2], the nontoxic entry is “FALSE (not_nontoxic)”.

As to `CCCCCCCC[N+](C)(CCCCCCCC)CCCCCCCC`, the nontoxic entry in data set [2] is “FALSE (not_nontoxic)”. Turning to `O=S(=O)(O)c1cc(Nc2nc(Nc3ccccc3)nc(N(CCO)CCO)n2)ccc1/C=C/c1ccc(Nc2nc(Nc3ccccc3)nc(N(CCO)CCO)n2)cc1S(=O)(=O)O`, in data set [3], the GHS category came to 5. This compound came in with an LD50 in data set [1] of 12100 mg/kg. On to `CCN(CC)C(=S)SSC(=S)N(CC)CC`, for which, in data set [1], the LD50 is 500 mg/kg.

`Nc1ccncc1` gave an LD50 in data set [1] of 14 mg/kg. The same measure, in the same setting: to `CC(O)CNCC(C)O` (centres undefined) belongs 4760 mg/kg.

Take `NC(=O)c1c(F)cccc1F`: the LD50 in data set [1] was determined as 1080 mg/kg. On the same count and under the same terms, to `COc1ccc(Cc2nccc3cc(OC)c(OC)cc23)cc1OC` belongs 325 mg/kg; to `COc1ccccc1NC(=O)CC(C)=O`, 1600 mg/kg; to `CCCOCCO`, 3090 mg/kg. On the same count and under the same terms, to `C1=CCCC=CCCC=CCC1` belongs 1780 mg/kg. Same read-out and setting: to `CCOC(=O)CC(O)(CC(=O)OCC)C(=O)OCC` belongs 5900 mg/kg. `CCOC(=O)C(O)(c1ccc(Cl)cc1)c1ccc(Cl)cc1` had an LD50 in data set [1] of 700 mg/kg. Still for that read-out and setting: to `CNC(=O)ON=CC(C)(C)SC` belongs 0.5 mg/kg; to `O=C(CC(C(=O)OC1CCCCC1)S(=O)(=O)O)OC1CCCCC1` (centres undefined), 2830 mg/kg.

Consider `NC(N)=O`, for which the GHS category in data set [3] stood at 5. This compound showed an LD50 in data set [1] of 8470 mg/kg. In turn, `Cc1ccc2nc3sc(=O)sc3nc2c1` gave an LD50 in data set [1] of 1100 mg/kg. Take `Cc1nnc(-c2ccccc2)c(=O)n1N`: the LD50 in data set [1] amounted to 1180 mg/kg.

In the case of `OCCOc1ccccc1`, the LD50 in data set [1] was found to be 1370 mg/kg. Still for that read-out and setting: the value for `CN(Cc1cnc2nc(N)nc(N)c2n1)c1ccc(C(=O)N[C@@H](CCC(=O)O)C(=O)O)cc1` was 135 mg/kg; that for `CC(=O)OC(C)(C)C` was 4100 mg/kg. Same read-out and setting: to `O=P(OC(CCl)CCl)(OC(CCl)CCl)OC(CCl)CCl` belongs 1850 mg/kg; to `C#CCN1CC(=O)N(COC(=O)[C@@H]2[C@@H](C=C(C)C)C2(C)C)C1=O`, 900 mg/kg; to `CCOP(=O)(N=C1SCC(C)S1)OCC` (centres undefined), 8.9 mg/kg. In the case of `Clc1cccc(Cl)c1C(Cl)Cl`, in data set [1], the LD50 was 1300 mg/kg. Compared with the last compound, the LD50 is about 150-fold higher. The same measure, in the same setting: the value for `OCC(CO)(CBr)CBr` was 1880 mg/kg. The same measure, in the same setting: the value for `CCOP(=O)(SC(C)CC)SC(C)CC` (centres undefined) was 37.1 mg/kg. Still for that read-out and setting: to `CC(C)NC(C)C` belongs 310 mg/kg.

In the case of `CCCCC(=O)O`, the LD50 in data set [1] came to 1060 mg/kg. `Nc1nc(N)nc(N)n1` had a GHS category in data set [3] of 5. Moreover, the LD50 in data set [1] worked out at 3160 mg/kg. `CC1=C(C(=O)Nc2ccccc2)S(=O)(=O)CCO1` showed an LD50 in data set [1] of 1630 mg/kg. In data set [1], `Cc1ccccc1OP(=O)(Oc1ccccc1C)Oc1ccccc1C` came in with an LD50 of 1160 mg/kg.

On to `OCCNc1ccccc1`, for which the LD50 in data set [1] was found to be 2230 mg/kg.

In the case of `ClC1=C(Cl)C2(Cl)C3C(Cl)C(Cl)CC3C1(Cl)C2(Cl)Cl` (centres undefined), the LD50 in data set [1] was 200 mg/kg. Compound `CCn1cc(C(=O)O)c(=O)c2ccc(C)nc21` returned an LD50 in data set [1] of 1160 mg/kg. Same read-out and setting: the value for `N#CCCCCCCC#N` was 238 mg/kg; that for `CCCCCCCCCCCCCCCCCCOCCO` was 1900 mg/kg; that for `Cc1ccccc1Cc1ccccc1` was 3020 mg/kg. The same measure, in the same setting: to `CC1=CC(C)(C)CC(=O)C1` belongs 1500 mg/kg; to `NCCCCCCN`, 750 mg/kg; to `CCCCOP(C)(=O)CCC(C#N)OC(C)=O` (centres undefined), 253 mg/kg. On the same count and under the same terms, the value for `CCCCO` was 790 mg/kg; that for `CCCC=O` was 2490 mg/kg.

As a reminder, the LD50 is the dose expected to kill half of the subjects tested. Read a high LD50 as a less toxic substance.
